Laboratory results published in the NIST ThermoML archive (doi:10.1021/je200213h).
Numbers after ± are expanded uncertainties.

Experiments:
[1] = 101.33 kPa, Liquid, Capillary tube (Ostwald / Ubbelohde) method
[2] = xn = mol fraction of the nth substance listed; conditions: 101 kPa, Liquid, Capillary tube (Ostwald / Ubbelohde) method

CCC(C)Cl (stereo not drawn) [2-chlorobutane]
[1]
Conditions | kinematic viscosity [m2/s]
283.15 K | 5.237e-07 ± 4.5e-09
298.15 K | 4.603e-07 ± 4e-09
313.15 K | 4.049e-07 ± 3.6e-09

CC(C)CCl [1-chloro-2-methylpropane] + CCC(C)CC
kinematic viscosity [m2/s], [2]
Conditions | 283.15 K | 298.15 K | 313.15 K
x2 = 0.0522 | 5.703e-07 ± 4.8e-09 | 4.87e-07 ± 4.2e-09 | 4.322e-07 ± 3.8e-09
x2 = 0.1013 | 5.618e-07 ± 4.7e-09 | 4.823e-07 ± 4.2e-09 | 4.275e-07 ± 3.8e-09
x2 = 0.2024 | 5.464e-07 ± 4.6e-09 | 4.717e-07 ± 4.1e-09 | 4.187e-07 ± 3.7e-09
x2 = 0.3032 | 5.324e-07 ± 4.5e-09 | 4.631e-07 ± 4e-09 | 4.113e-07 ± 3.6e-09
x2 = 0.4028 | 5.212e-07 ± 4.4e-09 | 4.55e-07 ± 4e-09 | 4.048e-07 ± 3.6e-09
x2 = 0.5056 | 5.115e-07 ± 4.4e-09 | 4.484e-07 ± 3.9e-09 | 3.994e-07 ± 3.6e-09
x2 = 0.604 | 5.043e-07 ± 4.3e-09 | 4.43e-07 ± 3.9e-09 | 3.951e-07 ± 3.5e-09
x2 = 0.7018 | 4.988e-07 ± 4.3e-09 | 4.396e-07 ± 3.8e-09 | 3.918e-07 ± 3.5e-09
x2 = 0.8002 | 4.949e-07 ± 4.2e-09 | 4.37e-07 ± 3.8e-09 | 3.896e-07 ± 3.5e-09
x2 = 0.898 | 4.93e-07 ± 4.2e-09 | 4.357e-07 ± 3.8e-09 | 3.881e-07 ± 3.5e-09
x2 = 0.9486 | 4.927e-07 ± 4.2e-09 | 4.355e-07 ± 3.8e-09 | 3.879e-07 ± 3.5e-09

CCCCCC [hexane]
[1]
Conditions | kinematic viscosity [m2/s]
283.15 K | 5.125e-07 ± 4.4e-09
298.15 K | 4.493e-07 ± 3.9e-09
313.15 K | 4.039e-07 ± 3.6e-09

CCC(C)(C)C [2,2-dimethylbutane] + CC(C)(C)Cl
kinematic viscosity [m2/s], [2]
Conditions | 283.15 K | 298.15 K | 313.15 K
x1 = 0.0499 | 6.937e-07 ± 5.7e-09 | 5.657e-07 ± 4.8e-09 | 4.748e-07 ± 4.1e-09
x1 = 0.1017 | 6.864e-07 ± 5.6e-09 | 5.592e-07 ± 4.7e-09 | 4.715e-07 ± 4.1e-09
x1 = 0.1983 | 6.729e-07 ± 5.5e-09 | 5.493e-07 ± 4.6e-09 | 4.664e-07 ± 4e-09
x1 = 0.3004 | 6.6e-07 ± 5.5e-09 | 5.405e-07 ± 4.6e-09 | 4.607e-07 ± 4e-09
x1 = 0.399 | 6.491e-07 ± 5.4e-09 | 5.333e-07 ± 4.5e-09 | 4.568e-07 ± 4e-09
x1 = 0.4989 | 6.399e-07 ± 5.3e-09 | 5.275e-07 ± 4.5e-09 | 4.538e-07 ± 3.9e-09
x1 = 0.6017 | 6.32e-07 ± 5.2e-09 | 5.225e-07 ± 4.4e-09 | 4.522e-07 ± 3.9e-09
x1 = 0.7034 | 6.27e-07 ± 5.2e-09 | 5.2e-07 ± 4.4e-09 | 4.518e-07 ± 3.9e-09
x1 = 0.8 | 6.228e-07 ± 5.2e-09 | 5.18e-07 ± 4.4e-09 | 4.519e-07 ± 3.9e-09
x1 = 0.8967 | 6.221e-07 ± 5.2e-09 | 5.184e-07 ± 4.4e-09 | 4.541e-07 ± 3.9e-09
x1 = 0.9504 | 6.224e-07 ± 5.2e-09 | 5.19e-07 ± 4.4e-09 | 4.556e-07 ± 4e-09

CCC(C)CC [3-methylpentane] + CCCCCl
kinematic viscosity [m2/s], [2]
Conditions | 283.15 K | 298.15 K | 313.15 K
x1 = 0.0518 | 5.496e-07 ± 4.6e-09 | 4.734e-07 ± 4.1e-09 | 4.175e-07 ± 3.7e-09
x1 = 0.094 | 5.448e-07 ± 4.6e-09 | 4.704e-07 ± 4.1e-09 | 4.155e-07 ± 3.7e-09
x1 = 0.2038 | 5.326e-07 ± 4.5e-09 | 4.622e-07 ± 4e-09 | 4.088e-07 ± 3.6e-09
x1 = 0.304 | 5.228e-07 ± 4.5e-09 | 4.553e-07 ± 4e-09 | 4.036e-07 ± 3.6e-09
x1 = 0.4059 | 5.143e-07 ± 4.4e-09 | 4.5e-07 ± 3.9e-09 | 3.988e-07 ± 3.5e-09
x1 = 0.5021 | 5.075e-07 ± 4.3e-09 | 4.453e-07 ± 3.9e-09 | 3.952e-07 ± 3.5e-09
x1 = 0.5999 | 5.017e-07 ± 4.3e-09 | 4.411e-07 ± 3.9e-09 | 3.921e-07 ± 3.5e-09
x1 = 0.7043 | 4.97e-07 ± 4.3e-09 | 4.382e-07 ± 3.8e-09 | 3.896e-07 ± 3.5e-09
x1 = 0.8049 | 4.945e-07 ± 4.2e-09 | 4.365e-07 ± 3.8e-09 | 3.884e-07 ± 3.5e-09
x1 = 0.9038 | 4.928e-07 ± 4.2e-09 | 4.351e-07 ± 3.8e-09 | 3.879e-07 ± 3.5e-09
x1 = 0.9492 | 4.928e-07 ± 4.2e-09 | 4.355e-07 ± 3.8e-09 | 3.877e-07 ± 3.5e-09

CCCCCl [1-chlorobutane] + CCCCCC
kinematic viscosity [m2/s], [2]
Conditions | 283.15 K | 298.15 K | 313.15 K
x1 = 0.0508 | 5.501e-07 ± 4.7e-09 | 4.74e-07 ± 4.1e-09 | 4.182e-07 ± 3.7e-09
x1 = 0.0992 | 5.449e-07 ± 4.6e-09 | 4.701e-07 ± 4.1e-09 | 4.169e-07 ± 3.7e-09
x1 = 0.1972 | 5.351e-07 ± 4.5e-09 | 4.634e-07 ± 4e-09 | 4.118e-07 ± 3.6e-09
x1 = 0.2966 | 5.269e-07 ± 4.5e-09 | 4.577e-07 ± 4e-09 | 4.08e-07 ± 3.6e-09
x1 = 0.3976 | 5.198e-07 ± 4.4e-09 | 4.531e-07 ± 3.9e-09 | 4.048e-07 ± 3.6e-09
x1 = 0.5009 | 5.145e-07 ± 4.4e-09 | 4.495e-07 ± 3.9e-09 | 4.027e-07 ± 3.6e-09
x1 = 0.6006 | 5.112e-07 ± 4.4e-09 | 4.467e-07 ± 3.9e-09 | 4.011e-07 ± 3.6e-09
x1 = 0.6982 | 5.092e-07 ± 4.4e-09 | 4.451e-07 ± 3.9e-09 | 4.005e-07 ± 3.6e-09
x1 = 0.7972 | 5.082e-07 ± 4.3e-09 | 4.455e-07 ± 3.9e-09 | 4.01e-07 ± 3.6e-09
x1 = 0.8979 | 5.094e-07 ± 4.4e-09 | 4.464e-07 ± 3.9e-09 | 4.023e-07 ± 3.6e-09
x1 = 0.9472 | 5.103e-07 ± 4.4e-09 | 4.474e-07 ± 3.9e-09 | 4.027e-07 ± 3.6e-09
